Measurements taken from paper PMC6385358, “Discovery of ((1,2,4-oxadiazol-5-yl)pyrrolidin-3-yl)ureidyl derivatives as selective non-steroidal agonists of the G-protein coupled bile acid receptor-1” (Scientific Reports, 2019).

Legend:
Format in all cases: cell-based
Details in all cases: 10 μM
[1] = target: T1, LXRβ (Homo sapiens, UniProt P55055); assay: Luciferase reporter specificity assay versus LXRβ on HepG2 cells
T1 construct: host or cells: HepG2
T1 sequence (P55055 1-460): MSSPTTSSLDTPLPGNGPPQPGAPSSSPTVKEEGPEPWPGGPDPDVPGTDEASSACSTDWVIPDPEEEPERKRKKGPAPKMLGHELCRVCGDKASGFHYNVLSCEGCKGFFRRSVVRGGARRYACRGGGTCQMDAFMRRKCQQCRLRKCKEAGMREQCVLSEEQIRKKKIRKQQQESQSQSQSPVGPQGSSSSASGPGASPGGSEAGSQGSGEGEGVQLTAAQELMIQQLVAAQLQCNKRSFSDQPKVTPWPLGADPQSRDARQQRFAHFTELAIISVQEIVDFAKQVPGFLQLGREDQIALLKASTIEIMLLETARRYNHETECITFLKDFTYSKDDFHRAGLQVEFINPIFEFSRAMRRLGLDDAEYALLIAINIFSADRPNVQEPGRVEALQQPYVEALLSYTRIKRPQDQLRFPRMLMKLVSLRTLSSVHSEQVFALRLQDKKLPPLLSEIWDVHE
Method: (§1) The activity of compounds 1–14 on GPBAR1 was evaluated in a luciferase reporter assay using HEK-293T cells transfected with GPBAR1. The efficacy of tested compounds (Table 1) was measured using taurolithocholic acid (TLCA) as GPBAR1 reference compound[10],[11]. Each compound was tested at the concentration of 10 μM and transactivation activity of TLCA on a cAMP responsive element (CRE) (i.e. TGR5/GPBAR1) was considered equal to 100%. […] Thus, 9 and 10 (Table 1) turned out to be the most promising derivatives considering their low EC50 values and high activity efficacy. To further characterize the pharmacological properties of these compounds, we expanded their in vitro profile to common off-targets for bile acid receptor ligands.
(§2) Figure 3 (A) Dose response curves of compounds 9 and 10 (concentrations ranging from 1 to 50 µM) in luciferase reporter assay. (B) Real-time PCR analysis of mRNA expression of Pro-glucagon in GLUTag cells treated with compounds 9 and 10 at 10 μM, and TLCA used as a positive control (10 μM). Values are normalized to GAPDH and are expressed relative to those of not treated cells (NT) which are arbitrarily settled to 1. The relative mRNA expression is expressed as 2^(−ΔΔCt). […]
(§3) The specificity of compounds 9 and 10 versus PPARα, PPARγ, LXRα, LXRβ, FXR and PXR was determined in luciferase reporter gene assays as previously reported[29],[31].

[2] = target: T2, FXR (Homo sapiens, UniProt Q96RI1); assay: Luciferase reporter specificity assay versus FXR on HepG2 cells
T2 construct: host or cells: HepG2
T2 sequence (Q96RI1 1-486): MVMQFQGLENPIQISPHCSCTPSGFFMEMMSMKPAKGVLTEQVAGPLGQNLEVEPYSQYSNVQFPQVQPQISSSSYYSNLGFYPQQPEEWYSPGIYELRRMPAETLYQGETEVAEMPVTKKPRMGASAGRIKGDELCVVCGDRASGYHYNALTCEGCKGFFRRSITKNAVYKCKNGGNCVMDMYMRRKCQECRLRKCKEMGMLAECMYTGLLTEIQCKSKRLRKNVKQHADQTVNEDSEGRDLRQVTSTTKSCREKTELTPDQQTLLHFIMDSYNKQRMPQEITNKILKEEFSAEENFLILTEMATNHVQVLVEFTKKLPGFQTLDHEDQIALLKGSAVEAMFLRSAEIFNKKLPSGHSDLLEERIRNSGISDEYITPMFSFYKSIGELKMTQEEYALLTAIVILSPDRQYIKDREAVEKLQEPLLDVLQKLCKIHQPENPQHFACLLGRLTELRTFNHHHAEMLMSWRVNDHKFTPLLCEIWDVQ
Method: as §1, §2, §3

[3] = target: T3, PPARα (Homo sapiens, UniProt Q07869); assay: Luciferase reporter specificity assay versus PPARα on HepG2 cells
T3 construct: host or cells: HepG2
T3 sequence (Q07869 1-468): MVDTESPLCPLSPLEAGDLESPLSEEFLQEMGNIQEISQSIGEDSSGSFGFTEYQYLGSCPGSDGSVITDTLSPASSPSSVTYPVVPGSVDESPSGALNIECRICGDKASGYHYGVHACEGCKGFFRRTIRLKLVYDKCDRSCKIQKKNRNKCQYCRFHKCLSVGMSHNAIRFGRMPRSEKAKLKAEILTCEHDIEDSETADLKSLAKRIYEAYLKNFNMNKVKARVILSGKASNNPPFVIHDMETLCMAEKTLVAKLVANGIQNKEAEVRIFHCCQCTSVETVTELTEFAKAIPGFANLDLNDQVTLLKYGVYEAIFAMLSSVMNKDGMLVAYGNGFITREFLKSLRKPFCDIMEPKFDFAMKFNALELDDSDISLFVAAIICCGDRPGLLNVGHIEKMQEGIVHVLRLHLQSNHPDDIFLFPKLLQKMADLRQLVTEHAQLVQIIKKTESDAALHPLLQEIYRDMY
Method: as §1, §2, §3

O=C(Nc1ccc(Cl)cc1)N[C@@H]1CN[C@H](c2nc(-c3ccccc3)no2)C1 [Compound 9]
unable to induce: LXRβ transactivation [1] | FXR transactivation [2] | PPARα transactivation [3]

O=C(NC1CCCCC1)N[C@@H]1CN[C@H](c2nc(-c3ccccc3)no2)C1 [Compound 10]
unable to induce: LXRβ transactivation [1] | FXR transactivation [2] | PPARα transactivation [3]
